According to patent EP2768830B1, “APOPTOSIS-INDUCING AGENTS FOR THE TREATMENT OF CANCER AND IMMUNE AND AUTOIMMUNE DISEASES” (AbbVie Inc., priority 2011, dated 2013):
Read-outs that look alike come from different tables or passages of the source.

Legend:
[1] = tested on: mouse FL5.12 cells transfected with Bcl-XL; experiment: FL5.12 cellular assay (cell viability, CellTiter-Glo); assay type: cell-based; conditions: FL5.12 cells transfected with Bcl-XL, IL-3-depleted, 3% FBS assay media, 24 hours, CellTiter-Glo, read-out: FL5.12 Bcl-xL, - IL3, EC 50;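 also: each EC50 determination derived from duplicate measurements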
Procedure: For assaying the compound activity, the cells were exchanged into an IL-3-depleted deprivation media, which was identical to the growth media except for the absence of FBS and WEHI-3B conditional media, for 2 days. Then the cells were exchanged to 3% FBS assay media (RPMI with 2 mM glutamine, 1% 100 mM sodium pyruvate, 2% 1 M HEPES, 4 µL/L of β-mercaptoethanol, 1% penicillin-streptomycin, 3% FBS). Compounds in series dilutions were added, and the cells were cultured for 24 hours. Compounds in series dilutions were added, and the cells were cultured for 24 hours. Cell viability was assayed using the CellTiter-Glo assay (Promega Corp., Madison, WI) according to the manufacturer instructions. Individual determinations were the result of duplicate values.

[2] = molecular target: GST-Bcl-xL (Homo sapiens, UniProt Q07817); conditions: read-out: TR-FRET binding Bcl-xL Ki
Chain of GST-Bcl-xL (Q07817 whole entry): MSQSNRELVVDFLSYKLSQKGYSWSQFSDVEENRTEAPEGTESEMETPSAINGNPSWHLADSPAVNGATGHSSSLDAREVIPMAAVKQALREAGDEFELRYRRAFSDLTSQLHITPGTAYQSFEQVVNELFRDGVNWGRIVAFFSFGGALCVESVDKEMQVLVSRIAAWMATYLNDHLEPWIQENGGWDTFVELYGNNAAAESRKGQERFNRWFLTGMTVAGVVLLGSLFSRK

## COCC(COC1(Cn2ncc(-c3ccc(N4CCc5cccc(C(=O)Nc6nc7ccccc7s6)c5C4)nc3C(=O)O)c2C)CCCCCC1)OC (stereo not shown) [Example 170, 6-[8-(1,3-benzothiazol-2-ylcarbamoyl)-3,4-dihydroisoquinolin-2(1H)-yl]-3-(1-{[1-(2,3-dimethoxypropoxy)cycloheptyl]methyl}-5-methyl-1H-pyrazol-4-yl)pyridine-2-carboxylic acid]
[1]; Mus musculus
  EC50: 0.5 nM
[2]
  Ki: < 0.1 nM

## COCCC(c1ccccc1)n1cc(-c2ccc(N3CCc4cccc(C(=O)Nc5nc6ccccc6s5)c4C3)nc2C(=O)O)cn1 (stereo not shown) [Example 93, 6-[8-(1,3-benzothiazol-2-ylcarbamoyl)-3,4-dihydroisoquinolin-2(1H)-yl]-3-[1-(3-methoxy-1-phenylpropyl)-1H-pyrazol-4-yl]pyridine-2-carboxylic acid]
[1]; Mus musculus
  EC50: 295 nM
[2]
  Ki: 16 nM

## CCc1c(-c2ccc(N3CCc4cccc(C(=O)Nc5nc6ccccc6s5)c4C3)nc2C(=O)O)cnn1CC1CCCCC1 [Example 84, 6-[8-(1,3-benzothiazol-2-ylcarbamoyl)-3,4-dihydroisoquinolin-2(1H)-yl]-3-[1-(cyclohexylmethyl)-5-ethyl-1H-pyrazol-4-yl]pyridine-2-carboxylic acid]
[1]; Mus musculus
  EC50: 12 nM
[2]
  Ki: 0.7 nM

## COc1ccc2nc(NC(=O)c3cccc4c3CN(c3ccc(-c5cnn(Cc6ccccc6)c5)c(C(=O)O)n3)CC4)sc2c1 [Example 11, 3-(1-benzyl-1H-pyrazol-4-yl)-6-{8-[(6-methoxy-1,3-benzothiazol-2-yl)carbamoyl]-3,4-dihydroisoquinolin-2(1H)-yl}pyridine-2-carboxylic acid]
[1]
  EC50: > 1000 nM
[2]
  Ki: 180 nM

## O=C(Nc1nc2ccccc2s1)c1cccc2c1CN(c1ccc(-c3ccc4c(c3)CCN(Cc3ccccn3)C4)c(C(=O)O)n1)CC2 [Example 136, 6-[8-(1,3-benzothiazol-2-ylcarbamoyl)-3,4-dihydroisoquinolin-2(1H)-yl]-3-[2-(pyridin-2-ylmethyl)-1,2,3,4-tetrahydroisoquinolin-6-yl]pyridine-2-carboxylic acid]
[1]; Mus musculus
  EC50: > 1000 nM
[2]
  Ki: 1.4 nM

## COC(=O)C(c1ccccc1)n1cc(-c2ccc(N3CCc4cccc(C(=O)Nc5nc6ccccc6s5)c4C3)nc2C(=O)O)cn1 (stereo not shown) [Example 95, 6-[8-(1,3-benzothiazol-2-ylcarbamoyl)-3,4-dihydroisoquinolin-2(1H)-yl]-3-[1-(2-methoxy-2-oxo-1-phenylethyl)-1H-pyrazol-4-yl]pyridine-2-carboxylic acid]
[1]; Mus musculus
  EC50: 542 nM
[2]
  Ki: 11 nM

## O=C(Nc1nc2ccccc2s1)c1cccc2c1CN(c1ccc(-c3cnn(Cc4cccc(O)c4)c3)c(C(=O)O)n1)CC2 [Example 17, 6-[8-(1,3-benzothiazol-2-ylcarbamoyl)-3,4-dihydroisoquinolin-2(1H)-yl]-3-[1-(3-hydroxybenzyl)-1H-pyrazol-4-yl]pyridine-2-carboxylic acid]
[1]
  EC50: > 1000 nM
[2]
  Ki: 31 nM

## Cc1ccc(S(=O)(=O)n2ccc(-c3ccc(N4CCc5cccc(C(=O)Nc6nc7ccccc7s6)c5C4)nc3C(=O)O)c2)cc1 [Example 126, 6-[8-(1,3-benzothiazol-2-ylcarbamoyl)-3,4-dihydroisoquinolin-2(1H)-yl]-3-{1-[(4-methylphenyl)sulfonyl]-1H-pyrrol-3-yl}pyridine-2-carboxylic acid]
[1]; Mus musculus
  EC50: > 1000 nM
[2]
  Ki: 47 nM

## O=C(Nc1nc2ccccc2s1)c1cccc2c1CN(c1ccc(-c3cnn(C4CCOc5ccccc54)c3)c(C(=O)O)n1)CC2 (stereo not shown) [Example 39, 6-[8-(1,3-benzothiazol-2-ylcarbamoyl)-3,4-dihydroisoquinolin-2(1H)-yl]-3-[1-(3,4-dihydro-2H-chromen-4-yl)-1H-pyrazol-4-yl]pyridine-2-carboxylic acid]
[1]; Mus musculus
  EC50: > 1000 nM
[2]
  Ki: 56 nM

## CC(C)CC1(Cn2cc(-c3ccc(N4CCc5cccc(C(=O)Nc6nc7ccccc7s6)c5C4)nc3C(=O)O)cn2)CCCCC1 [Example 87, 6-[8-(1,3-benzothiazol-2-ylcarbamoyl)-3,4-dihydroisoquinolin-2(1H)-yl]-3-(1-{[1-(2-methylpropyl)cyclohexyl]methyl}-1H-pyrazol-4-yl)pyridine-2-carboxylic acid]
[1]; Mus musculus
  EC50: 124 nM
[2]
  Ki: 4 nM

## Cc1c(-c2ccc(N3CCc4cccc(C(=O)Nc5nc6ccccc6s5)c4C3)nc2C(=O)O)cnn1CC1CCCOC1 (stereo not shown) [Example 66, 6-[8-(1,3-benzothiazol-2-ylcarbamoyl)-3,4-dihydroisoquinolin-2(1H)-yl]-3-[5-methyl-1-(tetrahydro-2H-pyran-3-ylmethyl)-1H-pyrazol-4-yl]pyridine-2-carboxylic acid]
[1]; Mus musculus
  EC50: 60 nM
[2]
  Ki: 3 nM

## Cc1ccc(-c2ccc(N3CCc4cccc(C(=O)Nc5nc6ccccc6s5)c4C3)nc2C(=O)O)cc1Oc1ccccc1 [Example 108, 6-[8-(1,3-benzothiazol-2-ylcarbamoyl)-3,4-dihydroisoquinolin-2(1H)-yl]-3-(4-methyl-3-phenoxyphenyl)pyridine-2-carboxylic acid]
[1]; Mus musculus
  EC50: > 1000 nM
[2]
  Ki: 9 nM

## O=C(Nc1nc2ccccc2s1)c1cccc2c1CN(c1ccc(-c3cnn(Cc4ccccc4OCc4ccncc4)c3)c(C(=O)O)n1)CC2 [Example 48, 6-[8-(1,3-benzothiazol-2-ylcarbamoyl)-3,4-dihydroisoquinolin-2(1H)-yl]-3-{1-[2-(pyridin-4-ylmethoxy)benzyl]-1H-pyrazol-4-yl}pyridine-2-carboxylic acid]
[1]; Mus musculus
  EC50: > 1000 nM
[2]
  Ki: 7 nM

## N#Cc1cccc(Cn2cc(-c3ccc(N4CCc5cccc(C(=O)Nc6nc7ccccc7s6)c5C4)nc3C(=O)O)cn2)c1 [Example 24, 6-[8-(1,3-benzothiazol-2-ylcarbamoyl)-3,4-dihydroisoquinolin-2(1H)-yl]-3-[1-(3-cyanobenzyl)-1H-pyrazol-4-yl]pyridine-2-carboxylic acid]
[1]
  EC50: > 1000 nM
[2]
  Ki: 64 nM

## Cc1c(-c2ccc(N3CCc4cccc(C(=O)Nc5nc6ccccc6s5)c4C3)nc2C(=O)O)cnn1CC1(N2CCOCC2)CCCC(C)(C)C1 (stereo not shown) [Example 145, 6-[8-(1,3-benzothiazol-2-ylcarbamoyl)-3,4-dihydroisoquinolin-2(1H)-yl]-3-(1-{[3,3-dimethyl-1-(morpholin-4-yl)cyclohexyl]methyl}-5-methyl-1H-pyrazol-4-yl)pyridine-2-carboxylic acid]
[1]; Mus musculus
  EC50: 0.2 nM
[2]
  Ki: < 0.1 nM

## COC1(Cn2ncc(-c3ccc(N4CCc5cccc(C(=O)Nc6nc7ccccc7s6)c5C4)nc3C(=O)O)c2C)CCCCC1 [Example 165, 6-[8-(1,3-benzothiazol-2-ylcarbamoyl)-3,4-dihydroisoquinolin-2(1H)-yl]-3-{1-[(1-methoxycyclohexyl)methyl]-5-methyl-1H-pyrazol-4-yl}pyridine-2-carboxylic acid]
[1]; Mus musculus
  EC50: 9 nM
[2]
  Ki: < 0.1 nM

## O=C(Nc1nc2ccccc2s1)c1cccc2c1CN(c1ccc(-c3cnn(Cc4ccc5ccccc5c4)c3)c(C(=O)O)n1)CC2 [Example 28, 6-[8-(1,3-benzothiazol-2-ylcarbamoyl)-3,4-dihydroisoquinolin-2(1H)-yl]-3-[1-(naphthalen-2-ylmethyl)-1H-pyrazol-4-yl]pyridine-2-carboxylic acid]
[1]; Mus musculus
  EC50: > 1000 nM
[2]
  Ki: 33 nM

## O=C(Nc1nc2ccccc2s1)c1cccc2c1CN(c1ccc(-c3cnn(CC4CCOCC4)c3)c(C(=O)O)n1)CC2 [Example 50, 6-[8-(1,3-benzothiazol-2-ylcarbamoyl)-3,4-dihydroisoquinolin-2(1H)-yl]-3-[1-(tetrahydro-2H-pyran-4-ylmethyl)-1H-pyrazol-4-yl]pyridine-2-carboxylic acid]
[1]; Mus musculus
  EC50: > 1000 nM
[2]
  Ki: 99 nM

## O=C(Nc1nc2ccccc2s1)c1cccc2c1CN(c1ccc(-c3cccc(Oc4ccc([N+](=O)[O-])cc4)c3)c(C(=O)O)n1)CC2 [Example 104, 6-[8-(1,3-benzothiazol-2-ylcarbamoyl)-3,4-dihydroisoquinolin-2(1H)-yl]-3-[3-(4-nitrophenoxy)phenyl]pyridine-2-carboxylic acid]
[1]; Mus musculus
  EC50: > 1000 nM
[2]
  Ki: 14 nM

## COCCOc1ccccc1Cn1ncc(-c2ccc(N3CCc4cccc(C(=O)Nc5nc6ccccc6s5)c4C3)nc2C(=O)O)c1C [Example 89, 6-[8-(1,3-benzothiazol-2-ylcarbamoyl)-3,4-dihydroisoquinolin-2(1H)-yl]-3-{1-[2-(2-methoxyethoxy)benzyl]-5-methyl-1H-pyrazol-4-yl}pyridine-2-carboxylic acid]
[1]; Mus musculus
  EC50: 23 nM
[2]
  Ki: 0.5 nM

## Cc1c(-c2ccc(N3CCc4cccc(C(=O)Nc5nc6ccccc6s5)c4C3)nc2C(=O)O)c(CO)nn1Cc1ccccc1 [Example 30, 6-[8-(1,3-benzothiazol-2-ylcarbamoyl)-3,4-dihydroisoquinolin-2(1H)-yl]-3-[1-benzyl-3-(hydroxymethyl)-5-methyl-1H-pyrazol-4-yl]pyridine-2-carboxylic acid]
[1]; Mus musculus
  EC50: 298 nM
[2]
  Ki: 2 nM

## COC1(Cn2ncc(-c3ccc(N4CCc5cccc(C(=O)Nc6nc7ccccc7s6)c5C4)nc3C(=O)O)c2C)CCCC(C)(C)C1 (stereo not shown) [Example 157, 6-[8-(1,3-benzothiazol-2-ylcarbamoyl)-3,4-dihydroisoquinolin-2(1H)-yl]-3-{1-[(1-methoxy-3,3-dimethylcyclohexyl)methyl]-5-methyl-1H-pyrazol-4-yl}pyridine-2-carboxylic acid]
[1]; Mus musculus
  EC50: 0.3 nM
[2]
  Ki: < 0.1 nM

## Cc1c(-c2ccc(N3CCc4cccc(C(=O)Nc5nc6ccccc6s5)c4C3)nc2C(=O)O)cnn1CC1(OCCN2CCS(=O)(=O)CC2)CCCCC1 [Example 167, 6-[8-(1,3-benzothiazol-2-ylcarbamoyl)-3,4-dihydroisoquinolin-2(1H)-yl]-3-[1-({1-[2-(1,1-dioxidothiomorpholin-4-yl)ethoxy]cyclohexyl}methyl)-5-methyl-1H-pyrazol-4-yl]pyridine-2-carboxylic acid]
[1]; Mus musculus
  EC50: 81 nM
[2]
  Ki: < 0.1 nM
